Consider 15 compounds from ChEMBL document CHEMBL6177919, “Development, biological evaluation, and molecular modelling of some benzene-sulfonamide derivatives as protein tyrosine phosphatase-1B inhibitors for managing diabetes mellitus and associated metabolic disorders” (RSC Med Chem, 2025).

The first experiment has as its target T1, Tyrosine-protein phosphatase non-receptor type 1 (Homo sapiens, UniProt P18031).
T1 sequence (P18031 whole entry): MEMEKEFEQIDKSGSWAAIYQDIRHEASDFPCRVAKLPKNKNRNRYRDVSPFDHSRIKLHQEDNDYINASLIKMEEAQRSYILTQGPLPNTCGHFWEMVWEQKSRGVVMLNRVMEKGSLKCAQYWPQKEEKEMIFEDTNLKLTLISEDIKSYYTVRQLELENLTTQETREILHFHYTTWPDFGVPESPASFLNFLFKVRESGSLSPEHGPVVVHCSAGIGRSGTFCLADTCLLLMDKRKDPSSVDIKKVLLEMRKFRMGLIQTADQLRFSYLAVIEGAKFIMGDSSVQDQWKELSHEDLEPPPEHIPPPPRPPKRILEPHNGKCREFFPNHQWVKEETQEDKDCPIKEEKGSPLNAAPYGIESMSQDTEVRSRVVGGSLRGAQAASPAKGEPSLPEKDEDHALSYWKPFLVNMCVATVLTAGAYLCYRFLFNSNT
Description: Inhibition of human recombinant PTP1B incubated for 15 mins by fluorometric assay
In turn, `CCN1C(=O)CS/C1=N\c1ccc(S(=O)(=O)Nc2ncccn2)cc1` displayed an IC50 of 0.62 µM.

`CN1CCN(CC(=O)Nc2ccc(S(=O)(=O)Nc3ncccn3)cc2)CC1`: the IC50 turned out to be 0.57 µM.

Compound `CC(=O)C1=CC(=O)N(c2ccc(S(=O)(=O)Nc3ncccn3)cc2)C1=O` came in with an IC50 of 0.83 µM.

In the case of `CC1S/C(=N\c2ccc(S(=O)(=O)Nc3ncccn3)cc2)N(c2ccccc2)C1=O` (stereo not given), half-maximal inhibition (IC50) was put at 1.89 µM.

Turning to `CC/N=C1\SCC(=O)N1c1ccc(S(=O)(=O)Nc2ncccn2)cc1`, it took 16.6 µM to reach half-maximal inhibition (IC50).

In turn, `CCN1C(=O)C(C)S/C1=N\c1ccc(S(=O)(=O)Nc2ncccn2)cc1` (stereo not given) displayed an IC50 of 0.71 µM. This IC50 lies about 23-fold lower than the previous one.

Compound `O=S(=O)(Nc1ncccn1)c1ccc(NCc2nc3ccccc3[nH]2)cc1` displayed an IC50 of 0.68 µM.

`CCc1ccc(CCOc2ccc(CC3SC(=O)NC3=O)cc2)nc1` (stereo not given) [PIOGLITAZONE]: the IC50 worked out at 0.65 µM.

Regarding `O=C1CS/C(=N\c2ccccc2)N1c1ccc(S(=O)(=O)Nc2ncccn2)cc1`, the IC50 amounted to 14 µM.

`N=C1SCC(=O)N1c1ccc(S(=O)(=O)Nc2ncccn2)cc1` yielded an IC50 of 8.97 µM.

`CC1O/C(=N\c2ccc(S(=O)(=O)Nc3ncccn3)cc2)N(c2ccccc2)C1=O` (stereo not given): the IC50 came to 1.95 µM.

For the compound `O=C(CN1CCN(c2ccccc2)CC1)Nc1ccc(S(=O)(=O)Nc2ncccn2)cc1`, 3.67 µM corresponded to half-maximal inhibition (IC50).

The compound `N#CC1=CC(=O)N(c2ccc(S(=O)(=O)Nc3ncccn3)cc2)C1=O` registered an IC50 of 0.72 µM.

A further experiment addresses T1, Tyrosine-protein phosphatase non-receptor type 1. This is another data set of the same source.
Description: Inhibition of PTP1B (unknown origin)
`O=C(O)c1ccc(CN2C(=O)S/C(=C\c3ccc(OCc4ccccc4)cc3)C2=O)cc1` came in with an IC50 of 1.3 µM. In other words, the single-digit micromolar range.

For another experiment the target is unchanged. This is another data set of the same source.
Description: Inhibition of C-terminal PTP1B (unknown origin)
Turning to `COC(=O)CC[C@@H](C)[C@H]1CC[C@H]2[C@@H]3[C@H](O)C[C@H]4C[C@H](NCCCCNCc5ccccn5)CC[C@]4(C)[C@H]3CC[C@]12C`, the IC50 was determined as 0.1 µM.

By IC50 is commonly meant the concentration that inhibits the measured activity by half. Read a high IC50 as weaker potency.
